The results in this text go back to article PMC4728507, “Bioactive Polycyclic Quinones from Marine Streptomyces sp. 182SMLY” (Marine Drugs, 2016).

Series [1] deals with glioma U251 cells. Put plainly: SRB assay, proliferation of glioma U251 cells. The class given is cell-based. Particulars: Homo sapiens, U-251, 72 h, read-out: IC50 inhibiting the proliferation of cells, U251. As for the experimental part:
(§1) The compounds 1 and 2 were assayed for their activities inhibiting the proliferation of glioma C6, U251, U87-MG, and SHG-44 cells using the sulforhodamine B (SRB) assay. The SRB assay is a method that measures total cellular protein content for evaluating the activity of tested compounds against the proliferation of tumor cells. Doxorubicin (DOX) was used as a positive control. Glioma cells were treated with tested compounds for 72 h at different concentrations. […] N-acetyl-N-demethylmayamycin (1) and streptoanthraquinone A (2) were also assayed for their activity against normal human astrocytes (HA). The initial assay was conducted on the concentrations from 0.35 to 7.0 μM for 1 and on those from 1.65 to 16.5 μM for 2. The cell viability of HA cells from each tested concentration of both compounds was 100%.
(§2) Human glioma U251 and rat glioma C6 cells were cultured in DMEM (Dulbecco’s Modified Eagle Medium, Gibco, Thermo Fisher Scientific Inc., Waltham, MA, USA) with 10% FBS (Fetal Bovine Serum, PAA Laboratories Inc., Dartmouth, MA, USA), human glioma SHG-44 in RPMI-1640 Medium (Roswell Park Memorial Institution 1640 Medium, Gibco, Thermo Fisher Scientific Inc., Waltham, MA, USA), human glioma U87-MG cells in MEM (Minimum Essential Medium, Gibco), and normal human astrocytes (HA) in AM (Astrocyte Medium, ScienCell, Cat. No. 1801). All cells were incubated at 37 °C in a humidified incubator with 5% CO2. Cells after the third generation were used for experiment.
(§3) The SRB assay was used to evaluate the activity of the isolated compounds in inhibiting the proliferation of glioma U87-MG, U251, SHG-44, and C6 cells. Doxorubicin (DOX) was used as the positive control. Briefly, glioma cells were plated in a 96-well plate and then treated with different concentrations of tested compound after cells adhesion for 24 h. […] After dried, dye was dissolved in a 10 mM Tris buffer and measured at 515 nm on a microplate reader (BioTech, Winooski, VT, USA).

A further series has as its system glioma U87-MG cells. Put plainly: SRB assay, proliferation of glioma U87-MG cells. Type of series: cell-based. Particulars: Homo sapiens, U-87 MG, 72 h, read-out: IC50 inhibiting the proliferation of cells, U87-MG. As for the experimental part:
as §1, §2, §3
(In general: In SRB staining, fixed cells bind dye roughly in proportion to their protein.)

The next series concerns glioma SHG-44 cells. The series is described as follows: SRB assay, proliferation of glioma SHG-44 cells. Type of series: cell-based. The conditions noted are these: Homo sapiens, 72 h, read-out: IC50 inhibiting the proliferation of cells, SHG-44. How it is done: as §1, §2, §3
A further series deals with glioma C6 cells. The series is described as follows: SRB assay, proliferation of glioma C6 cells. Type of series: cell-based. The conditions noted are these: Rattus norvegicus, 72 h, read-out: IC50 inhibiting the proliferation of cells, C6. As for the experimental part: as §1, §2, §3
A short description of series [2]: Activity against normal human astrocytes (HA). Type of series: cell-based. Particulars: human, normal human astrocytes (HA), initial assay, read-out: Cell viability of HA cells. As for the experimental part:
as §1, §2

The test system of series [3] is normal human astrocytes (HA). The series is described as follows: Activity against normal human astrocytes (HA). The class given is cell-based. The conditions noted are these: Homo sapiens, Astrocyte; HA cells, second assay in higher concentrations. How it is done: as §1, §2
In series [4] the test system is glioma U251 cells. The series is described as follows: Apoptosis in glioma U251 cells, flow cytometry with Annexin V-FITC/PI double staining. The conditions noted are these: 36 h, control 3.58%. The class given is cell-based, human. How it is done: N-acetyl-N-demethylmayamycin (1) and streptoanthraquinone A (2) were further tested for their ability to induce apoptosis in glioma U251 cells by flow cytometry using Annexin V-FITC/PI double staining.
Figure 6 N-acetyl-N-demethylmayamycin (1) and streptoanthraquinone A (2) induced apoptosis in the glioma U251 cells quantified by cytometric analysis. U251 cells were treated with 1 (0.7 μM) or 2 (3.3 μM) for 36 h and then stained with Annexin-V FITC and PI double staining (B1: necrotic cells; B2: late apoptotic cells; B3: normal glioma cells; B4: early apoptotic cells). TEXT PRINTED IN THE PICTURE: 1: U251: B1: 2.87% (0.7 μM); U251: B2: 31.39% (0.7 μM); U251: B3: 54.79% (0.7 μM); U251: B4: 10.95% (0.7 μM) | 2: U251: B1: 3.00% (3.3 μM); U251: B2: 29.85% (3.3 μM); U251: B3: 56.75% (3.3 μM); U251: B4: 10.40% (3.3 μM) DOUBTS OF THE COPYIST ABOUT THIS PICTURE: 1, B3: 54.79% is partly covered by plot points, digits not certain / 2, B3: 56.75% is partly covered by plot points, digits not certain / The CON (untreated control) plot prints B1 0.28%, B2 2.17%, B3 96.14% (partly covered by plot points, 96.14 or 96.44), B4 1.41%; left out of lines because it is not a substance
On the technique in general: A flow cytometer gives signals particle by particle.

Series [5] relates to methicillin-resistant Staphylococcus aureus ATCC 43300. Put plainly: Antimicrobial assay, micro broth dilution, MRSA. The class given is cell-based. Particulars: ATCC43300, ATCC 43300, micro broth dilution, read-out: MIC, growth of methicillin-resistant S. aureus. How it is done:
(§4) Compounds 1 and 2 were also determined for their activities against methicillin-resistant Staphylococcus aureus ATCC 43300 and Escherichia coli ATCC 25922.
(§5) The micro broth dilution method as described in the previous report was used to determine the antimicrobial activity of the isolated compounds against the methicillin-resistant Staphylococcus aureus ATCC 43300 and Escherichia coli ATCC 25922. Norfloxacin, a broad-spectrum antibiotic against both Gram-positive and Gram-negative bacteria, was used as the positive control.
In general terms: Dilution methods test growth across graded concentrations, often in twofold steps.

For series [6], the system named is Escherichia coli ATCC 25922. Put plainly: Antimicrobial assay, micro broth dilution, E. coli. Type of series: cell-based. Particulars: ATCC 25922, micro broth dilution. How it is done:
as §4, §5

Series [7] relates to glioma C6, U251, U87-MG, and SHG-44 cells. Put plainly: SRB assay, four glioma cell lines (summary ranges). The class given is cell-based. The conditions noted are these: 72 h, read-out: IC50 range over four tested glioma cell lines. As for the experimental part: as §1
The SRB assay was used to evaluate the activity of the isolated compounds in inhibiting the proliferation of glioma U87-MG, U251, SHG-44, and C6 cells. Doxorubicin (DOX) was used as the positive control. Briefly, glioma cells were plated in a 96-well plate and then treated with different concentrations of tested compound after cells adhesion for 24 h. After 72 h of the treatment, cells were fixed with 50 μL of a 10% cold TCA solution for 1 h at 4 °C, washed with distilled water five times, and then dried at room temperature. The dried cells were stained with 50 μL of 0.4% SRB for ten minutes and rinsed with a 1% acetic acid solution five times. After dried, dye was dissolved in a 10 mM Tris buffer and measured at 515 nm on a microplate reader (BioTech, Winooski, VT, USA).

Values after ≈ are worked out from the molar mass of the structure shown. Like-named read-outs stand apart in the source and are kept apart here. Bounds are passed on as bounds.

On to `CC(=O)NC1CC(c2c(O)c3c(c4c(O)cc(C)cc24)C(=O)c2cccc(O)c2C3=O)OC(C)C1O` (centres unmarked) [Compound 1, N-acetyl-N-demethylmayamycin], for which the IC50 with glioma U251 cells [1] was 0.7 ± 0.2 µM; in the series with glioma U87-MG cells, 1.4 ± 0.1 µM; with glioma SHG-44 cells, 3.9 ± 0.4 µM; in the series with glioma C6 cells, 0.5 ± 0.1 µM; in [3], 25 ± 1.3 µM; in [7] it was 0.5 to 3.9 µM. Further, the viability (as a rule, the share of living cells, or the viability signal relative to a control) in [2] (each tested concentration from 0.35 to 7.0 μM) was determined as 100%. Moreover, in the series on glioma U251 cells [4] (U251, 0.7 μM), the “Increase of total apoptotic cells (early and late) compared to the control” value came out at 38.76%. Besides, the MIC (commonly the lowest concentration that inhibits growth of the organism) in [5] was determined as 20 µM (≈ 9.83 µg/mL). The “MIC, growth of E. coli” value in series [6] was “no activity”.
For `CC(=O)OC1c2c3c(c(O)c4c2C(Cc2c(O)cc(C)cc2-4)OC1C)C(=O)c1cccc(O)c1C3=O` (centres unmarked) [Compound 2, streptoanthraquinone A], the IC50 was 3.3 ± 0.3 µM with glioma U251 cells [1]; 4.6 ± 0.3 µM in the series with glioma U87-MG cells; 6.5 ± 1.1 µM in the series on glioma SHG-44 cells; 7.3 ± 1.4 µM in the series on glioma C6 cells; more than 100 µM in series [3]; 3.3 to 7.3 µM in series [7]. In addition, the viability in series [2] (each tested concentration from 1.65 to 16.5 μM) worked out at 100%. The “Increase of total apoptotic cells (early and late) compared to the control” value with glioma U251 cells [4] (U251, 3.3 μM) amounted to 36.67%. In series [6], the “MIC, growth of E. coli” value is on record as “no activity”.
Regarding `COc1cccc2c1C(=O)c1c(O)c3c(c(O)c1C2=O)C[C@@](O)(C(=O)CO)C[C@@H]3O[C@H]1C[C@H](N)[C@H](O)[C@H](C)O1` [Doxorubicin (DOX), Doxorubicin, reference compound], the IC50 in the series on glioma U251 cells [1] was 6.7 ± 1.1 µM; with glioma U87-MG cells, 0.9 ± 0.1 µM; with glioma SHG-44 cells, 9 ± 0.8 µM; in the series on glioma C6 cells it was 1 ± 0.1 µM; in series [7] it was 0.9 to 9 µM.
Consider `CCn1cc(C(=O)O)c(=O)c2cc(F)c(N3CCNCC3)cc21` [norfloxacin, reference compound], for which the MIC in [5] came out at 62.6 µM (≈ 20 µg/mL); in series [6] (Escherichia coli, ATCC25922, read-out: MIC, growth of E. coli), 31.3 µM (≈ 10 µg/mL).
